We go through 14 compounds from PMC8270260, “4,7-Disubstituted 7H-Pyrrolo[2,3-d]pyrimidines and Their Analogs as Antiviral Agents against Zika Virus” (Molecules, 2021).

pEC50, pIC50: −log10 of the molar value.

Data set [1] in a line: Cell viability assay (MTS). Type of data set: cell-based. Conditions: human, non-infected Huh7 cells; for viability at 10 µM: normalized to DMSO; for CC50 at 72 h: Huh7 cells. The procedure:
Cell viability assays for non-infected Huh7 cells treated with the testing compounds (in-house library), control compounds (NITD008, RDV) and DMSO were performed in parallel with the antiviral screening. After 3 or 5 days of treatment, depending upon the experiment, cell viability was evaluated using the MTS-based tetrazolium reduction CellTiter 96 Aqueous Non-Radioactive cell proliferation assay (Promega). Treatment was retired from the wells and the cells incubated with MTS diluted 1:10 in MEM medium supplemented with 10% FBS. Absorbance was measured at 490 nm wavelength. Readings were normalized with DMSO-treated cells (100%) and expressed as % viability. For dose-response experiments, we used concentrations between 0.01 and 90 µM and dose-response curves and CC50 were calculated using GraphPad Prism.

The target of data set [2] is ZIKV NS5 MTase (Zika virus, UniProt A0A024B7W1). Nature of the data set: ZIKV NS5 MTase biochemical assay. Conditions: read-out: IC50 against ZIKV NS5 MTase.
For data set [3], the system named is ZIKV. Description: ZIKV titer-reduction assay (plaque assay). It is filed as cell-based, Zika virus. As to conditions: Huh7, MOI 0.2, 72 hpi; for inhibition at 8.5 µM / pEC50 / EC90 / inhibition at 1.5 µM: Zika virus; for inhibition at 8.5 µM / inhibition at 1.5 µM: Huh-7, 72 h; for pEC50 / EC90: Huh-7. The procedure:
(§1) Selected compounds were validated at 8.5 µM or 1.5 µM (for compounds considered toxic at higher concentrations) using titer-reduction assays. Huh7 cells (1.5 × 10^5 per well) were plated in 24-well plates. Next day, the cells were inoculated with ZIKV or DENV (MOI 0.2 or 0.05, respectively) and two hours later, the inoculum was replaced with post-infection medium containing compound of interest at 8.5 µM or 1.5 µM. Seventy-two hpi, supernatants from infected and treated cells were collected and viral titers were measured by plaque assay. To visualize plaques, confluent Vero cells in 24-well plates were inoculated with 1:10 serial dilutions of supernatants. After two hours, the inoculum was retired and replaced with 800 µL of overlay medium (MEM medium containing 1.3% methylcellulose, 2% FBS, 100 IU streptomycin/penicillin per mL and 10 mM HEPES). After 5 days (7 days for DENV), cells were washed with PBS, fixed with 2% formaldehyde, and stained using 0.5% crystal violet in 25% methanol. Infectious virus titer (pfu/mL) was determined using the following formula: number of plaques × dilution factor × (1/inoculum volume (mL)). Viral titers were normalized with DMSO-treated and infected cells (0% inhibition). The limit of detection was 200 pfu/mL (100% inhibition). […] Dose-response assays (Figure S4, Panels B and C) were performed for selected compounds using titer-reduction assays. We used a concentration range of 0.5 to 15 µM for all selected compounds except for compound 14 (range of 0.1–3 µM). Pfu/mL were normalized as mentioned for single-dose response experiment using the values for DMSO-treated and infected cells (0% inhibition) and the limit of detection value (200 pfu/mL) as 100% inhibition. Dose-response curves were built in GraphPad Prism and EC50 values were obtained from those curves.

In data set [4] the test system is DENV-2. Description: DENV titer-reduction assay (plaque assay). It is filed as cell-based, dengue virus. Conditions: 8.5 µM (compound 14 at 1.5 µM), Huh7, MOI 0.05, 72 h. How it is done:
as §1
Figure 2 Inhibition of DENV by selected compounds. Huh7 cells were plated in 24 well plate. Next day, cells were inoculated with DENV (MOI = 0.05). After 2 h of infection inoculum was retired and the cells were treated with inhibitors at 8.5 µM (except for compound 14, 1.5 µM) for 72 h. Next, supernatants were assayed for viral titer by plaque assay and titers were normalized vs DMSO and expressed as % inhibition. The experiment was performed two independent times and each sample was performed in triplicate. The bars depict mean plus standard error of the mean.

Data set [5] deals with ZIKV. Description: ZIKV reporter assay (luciferase-expressing ZIKV PAN1 Nluc in Huh7 cells). Conditions: Zika virus, Huh-7, Huh7, MOI 0.2, 72 hpi. Type of data set: cell-based. The procedure:
The initial screening for ZIKV was performed using the in-house developed infectious ZIKV reporter expressing Nanoluc (ZIKV PAN1 Nluc) (see details in SI). Briefly, 1.5 × 10^4 Huh7 cells per well were seeded in 96 well plates. Next day, cells were inoculated with the ZIKV reporter at a multiplicity of infection (MOI) of 0.2 in infection medium (MEM medium supplemented with 1% FBS, 100 IU streptomycin/penicillin per mL, 1 mM sodium pyruvate and 10 mM HEPES). After 2 h, the inoculum was replaced with post-infection medium (MEM medium supplemented with 5% FBS, 100 IU streptomycin/penicillin per mL, 1 mM sodium pyruvate and 10 mM HEPES) containing compound of interest (10 µM). We used the flavivirus NS5 MTase inhibitor NSC12155^13 (10 µM) and the NS5 RdRp inhibitor NITD008^12 (1 µM) as positive controls for inhibition or 0.05% DMSO as vehicle control. Seventy-two hours post-infection (hpi), the cells were lysed with 50 µL 1× luciferase lysis buffer (Promega, Madison, WI, USA), incubated 10 min at room temp and stored at −80 °C. Thirty-five µL of lysed cells were transferred to a white 96-well plate and combined with 35 µL Nano-Glo® luciferase assay substrate (Promega) diluted 1:50 in Nano-Glo® luciferase assay buffer (Promega). The reaction was incubated for 2 min and luminescence readings were acquired using a Neo 2 plate reader (BioTek, Winooski, VT, USA). Percent inhibition was calculated in GraphPad Prism (San Diego, CA, USA) normalizing the luciferase signal to infected cells treated with DMSO (0% inhibition) and uninfected cells treated with DMSO (100% inhibition). EC50 values were calculated in GraphPad Prism using data obtained from dose-response experiments. For compounds 1 and 8, a range of concentrations between 0.05 and 15 µM were used. For compounds 11, 14, 23 and NSC12155, we used concentrations from 0.005 to 90 µM and 0.002 to 45 µM for NITD008.

ZIKV NS5 MTase, sequence (A0A024B7W1 2521-2785): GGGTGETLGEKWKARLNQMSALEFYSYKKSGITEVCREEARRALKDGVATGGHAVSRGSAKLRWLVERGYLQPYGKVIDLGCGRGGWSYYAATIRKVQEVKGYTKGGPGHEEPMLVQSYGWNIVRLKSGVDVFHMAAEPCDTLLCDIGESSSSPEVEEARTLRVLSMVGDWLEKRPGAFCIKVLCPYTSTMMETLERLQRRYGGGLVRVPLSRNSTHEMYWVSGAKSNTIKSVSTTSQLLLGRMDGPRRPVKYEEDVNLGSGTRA

In data set [1], `O=[N+]([O-])c1ccc(Cn2ccc3c(NCc4cccc(Cl)c4)ncnc32)cc1` [Compound 1, N-(3-Chlorobenzyl)-7-(4-nitrobenzyl)-7H-pyrrolo [2,3-d]pyrimidin-4-amine] had a viability at 10 µM of 69% and a CC50 at 72 h of 20 µM. Also, the pIC50 in data set [2] is < 4.00. For the same compound, in data set [3] (8.5 µM), at 8.5 µM the inhibition was 93%. In data set [3], this compound had a pEC50 of 5.28 and an EC90 of 10.7 µM. Also, in data set [4], the “Inhibition of DENV (% inhibition / protection)” value is “among the top inhibitors”. In data set [5], this compound had an inhibition at 10 µM of 73% and a pEC50 of 5.28.
With `O=[N+]([O-])c1ccc(Cn2ccc3c(NCc4ccc(Cl)c(Cl)c4)ncnc32)cc1` [Compound 23, N-(3,4-Dichlorobenzyl)-7-(4-nitrobenzyl)-7H-pyrrolo[2,3-d]pyrimidin-4-amine], in data set [1], the viability at 10 µM amounted to 80% and half-maximal cytotoxicity (CC50 at 72 h) was put at 26.8 µM. Moreover, the “Titer Reduction Assay EC99” value in data set [3] (NR = not reached) came out at 12.0 µM. Also, 8.5 µM produced 98% inhibition in data set [3] (8.5 µM). Further, in data set [3], the pEC50 is 5.23 and the 90% effect level (EC90) was put at 10.4 µM. In data set [4], the “Inhibition of DENV (% inhibition / protection)” value was “among the top inhibitors”. Also, in data set [5], the inhibition at 10 µM is 91% and the pEC50 was 5.24.
In turn, `CS(=O)(=O)c1cccc(Cn2ccc3c(NCc4cccc(Cl)c4)ncnc32)c1` [Compound 10, N-(3-Chlorobenzyl)-7-(3-(methylsulfonyl)benzyl)-7H-pyrrolo[2,3-d]pyrimidin-4-amine] showed a viability at 10 µM in data set [1] of 82%. The compound further returned an inhibition at 8.5 µM in data set [3] (8.5 µM) of 92%. The compound further returned an inhibition at 10 µM in data set [5] of 72%.
In the same order, the values of `O=[N+]([O-])c1ccc(Cn2ccc3c(NCc4ccccc4Cl)ncnc32)cc1` [Compound 19, N-(2-Chlorobenzyl)-7-(4-nitrobenzyl)-7H-pyrrolo[2,3-d]pyrimidin-4-amine] are 80%, 91% and 49%.
With `O=[N+]([O-])c1ccc(Cn2ccc3c(NCc4cccc(Cl)c4Cl)ncnc32)cc1` [Compound 21, N-(2,3-Dichlorobenzyl)-7-(4-nitrobenzyl)-7H-pyrrolo[2,3-d]pyrimidin-4-amine], the viability at 10 µM in data set [1] stood at 77%. In data set [3] (8.5 µM), this compound displayed an inhibition at 8.5 µM of 91%. In data set [5], at 10 µM the inhibition was 67%.
The matching figures for `Clc1cccc(CNc2ncnc3c2ccn3Cc2ccccc2)c1` [Compound 3, 7-Benzyl-N-(3-chlorobenzyl)-7H-pyrrolo[2,3-d]pyrimidin-4-amine]: 90%, 68% and 42%.
In the same order, the values of `Clc1cccc(CNc2ncnc3c2ccn3Cc2cccc3ccccc23)c1` [Compound 12, N-(3-Chlorobenzyl)-7-(naphthalen-1-ylmethyl)-7H-pyrrolo[2,3-d]pyrimidin-4-amine] are 73%, 66% and 84%.
Turning to `N#Cc1ccc(Cn2ncc3c(NCc4cccc(Cl)c4)ncnc32)cc1` [Compound 32, 4-((4-((3-Chlorobenzyl)amino)-1H-pyrazolo[3,4-d]pyrimidin-1-yl)methyl)benzonitrile], in data set [1], the viability at 10 µM was determined as 88% and half-maximal cytotoxicity (CC50 at 72 h) was put at 17.4 µM. The compound further displayed an inhibition at 8.5 µM in data set [3] (8.5 µM) of 88%. In data set [5], this compound showed an inhibition at 10 µM of 79%.
In data set [1], `O=[N+]([O-])c1ccc(Cn2ccc3c(NCc4cccc5ccccc45)ncnc32)cc1` [Compound 24, N-(Naphthalen-1-ylmethyl)-7-(4-nitrobenzyl)-7H-pyrrolo[2,3-d]pyrimidin-4-amine] yielded a viability at 10 µM of 44%. The compound further showed an inhibition at 1.5 µM in data set [3] of 13%. In data set [5], this compound returned an inhibition at 10 µM of 94%.
In turn, `Clc1cccc(CNc2ncnc3c2ccn3Cc2ccc3nc(Cl)ccc3c2)c1` [Compound 16, N-(3-Chlorobenzyl)-7-((2-chloroquinolin-6-yl)methyl)-7H-pyrrolo[2,3-d]pyrimidin-4-amine] yielded a viability at 10 µM in data set [1] of 34%. For the same compound, the inhibition at 1.5 µM in data set [3] came to 10%. Testing at 10 µM in data set [5] gave an inhibition of 95%.
Consider `Clc1cccc(CNc2ncnc3c2ccn3Cc2ccc3ccccc3c2)c1` [Compound 13, N-(3-Chlorobenzyl)-7-(naphthalen-2-ylmethyl)-7H-pyrrolo[2,3-d]pyrimidin-4-amine], for which the viability at 10 µM in data set [1] turned out to be 45%. In data set [3], this compound returned an inhibition at 1.5 µM of 18%. The compound also returned an inhibition at 10 µM in data set [5] of 75%.
With `FC(F)(F)c1cccc(Cn2ccc3c(NCc4cccc(Cl)c4)ncnc32)c1` [Compound 9, N-(3-Chlorobenzyl)-7-(3-(trifluoromethyl)benzyl)-7H-pyrrolo[2,3-d]pyrimidin-4-amine], in data set [1], the viability at 10 µM was determined as 61%. Besides, in data set [3] (8.5 µM), the “Titer Reduction Assay % at 8.5 µM” value was “toxic”. For the same compound, the inhibition at 10 µM in data set [5] was found to be 92%.
In data set [1], `N#Cc1cccc(Cn2ccc3c(NCc4cccc(Cl)c4)ncnc32)c1` [Compound 11, 3-((4-((3-Chlorobenzyl)amino)-7H-pyrrolo[2,3-d]pyrimidin-7-yl)methyl)benzonitrile] registered a viability at 10 µM of 60% and a CC50 at 72 h of 15.3 µM. In data set [3] (8.5 µM), the inhibition at 8.5 µM came out at 99%. In data set [3], the pEC50 is 5.30 and the EC90 stood at 6.98 µM. In data set [4], the “Inhibition of DENV (% inhibition / protection)” value is “among the top inhibitors”. In data set [5], 10 µM produced 90% inhibition and the pEC50 is 5.50.
In data set [1], `N#Cc1ccc(Cn2ccc3c(NCc4cccc(Cl)c4)ncnc32)cc1` [Compound 8, 4-((4-((3-Chlorobenzyl)amino)-7H-pyrrolo[2,3-d]pyrimidin-7-yl)methyl)benzonitrile] gave a viability at 10 µM of 68% and a CC50 at 72 h of 20.6 µM. In data set [3], this compound had an inhibition at 1.5 µM of 47%, a pEC50 of 5.37 and an EC90 of 9.02 µM. Further, the inhibition at 8.5 µM in data set [3] (8.5 µM) turned out to be 97%. The “Inhibition of DENV (% inhibition / protection)” value in data set [4] is given as “among the top inhibitors”. Moreover, in data set [5], 10 µM produced 78% inhibition and the pEC50 was 5.39.
